Reference: BigSolDB 2.1

NC(N)=S
solubility (mole fraction)
Conditions	283.15 K	288.15 K	293.15 K	298.15 K	303.15 K	308.15 K	313.15 K
in ethanol	0.0185	0.0206	0.0222	0.025	0.027	0.0315	0.0348
in methanol	0.0421	0.046	0.0501	0.054	0.061	0.065	0.0744
in n-propanol	0.0185	0.0206	0.0222	0.025	0.027	0.0315	0.0348
